According to ChEMBL document CHEMBL1121621, “Synthesis and antiarrhythmic activity of alpha, alpha-bis[(dialkylamino)alkyl]phenylacetamides” (J Med Chem, 1980):

How the values were obtained:
[1] = Therapeutic ratio in mixed-breed or Beagle dogs after intravenous administration of the compound.; assay type: ADME, Canis lupus familiaris; settings: dog, in vivo, read-out: TR
[2] = test system: Canis familiaris; test: Antiarrhythmic activity was evaluated in mixed-breed or Beagle dogs after intravenous administration.; assay type: functional, Canis lupus familiaris, Heart
[3] = test system: Canis familiaris; test: Minimum effective dose evaluated in mixed-breed or Beagle dogs after intravenous administration; assay type: functional; settings: Canis lupus familiaris, read-out: MED
[4] = test system: Canis familiaris; test: Activity duration index was evaluated in mixed-breed or Beagle dogs after intravenous administration.; assay type: functional, Canis lupus familiaris
[5] = test system: Canis familiaris; test: Compound was evaluated for onset of action after oral administration at a dose 25 mg/kg to dog.; assay type: functional, Canis lupus familiaris
[6] = test system: Canis familiaris; test: Compound was evaluated for maximum reduction of ectopic beats after oral administration at a dose 25 mg/kg to dog.; assay type: functional, Canis lupus familiaris, Heart
[7] = test system: Canis familiaris; test: Compound was evaluated for duration of action after oral administration at a dose 25 mg/kg to dog.; assay type: functional, Canis lupus familiaris
[8] = test system: Canis familiaris; test: Compound was evaluated for duration of action after oral administration at a dose 15 mg/kg to dog.; assay type: functional, Canis lupus familiaris
[9] = test system: Canis familiaris; test: Compound was evaluated for onset of action after oral administration at a dose 15 mg/kg to dog.; assay type: functional, Canis lupus familiaris
[10] = test system: Canis familiaris; test: Compound was evaluated for maximum reduction of ectopic beats after oral administration at a dose 15 mg/kg to dog.; assay type: functional, Canis lupus familiaris, Heart

Compound	selectivity ratio [1]	AR [2]	minimal effective dose [3] [mg/kg]	ADI [4]	Onset of action [5] [min]	Reduction [6] [%]	Duration [7] [min]	Duration [8] [min]	Onset of action [9] [min]	Reduction [10] [%]
CC(C)N(CCC(CCN1CCCCCC1)(C(N)=O)c1ccccc1)C(C)C (configuration not stated)	8.7	6.8	3	0.68						
CC(C)N(CCC(CCN(C)C)(C(N)=O)c1ccccc1Cl)C(C)C (configuration not stated)	4.7	2.7	7.5	0.31						
Cc1ccccc1C(CCN(C(C)C)C(C)C)(CCN(C(C)C)C(C)C)C(N)=O	6	6.6	1.5	2.57						
CC(C)N(CCC(CCN(C(C)C)C(C)C)(C(N)=O)c1ccc(Cl)cc1Cl)C(C)C	4	7.6	1.5	2.14						
CC(C)N(CCC(CCN1CCCCC1)(C(N)=O)c1ccc(F)cc1F)C(C)C (configuration not stated)	> 4	6	6	0.42						
CC(C)N(CCC(CCN1CCCCC1)(C(N)=O)c1ccc(F)cc1)C(C)C (configuration not stated)	1	4.4	8.3	0.58						
CC(C)N(CCC(CCN1CCN2CCCC2C1)(C(N)=O)c1ccccc1)C(C)C (configuration not stated)	> 5	2.7	10							
CC(C)N(CCC(CCN(C)C)(C(N)=O)c1ccccc1)C(C)C (configuration not stated)	> 7.5	2.6	12	0.4	131	100	200			
CC(C)N(CCC(CCN1CCCCC1)(C(N)=O)c1ccccc1)C(C)C (configuration not stated)	8.2	6.1	5.5	0.45	169	97	>300			
CC(C)N(CCC(CCN(C(C)C)C(C)C)(C(N)=O)c1ccc(Cl)cc1)C(C)C	2.3	6.6	3	0.86	30	100	>330			
CC(C)N(CCC(CCN(C(C)C)C(C)C)(C(N)=O)c1cccc(Cl)c1)C(C)C	6.7	6.9	1.5	1.42						
CC(C)N(CCC(CCN(C(C)C)C(C)C)(C(N)=O)c1c(Cl)cccc1Cl)C(C)C	4.6	6.9	2.7	1.2						
CC(C)N(CCC(CCN(C(C)C)C(C)C)(C(N)=O)c1ccccc1F)C(C)C	15	6.1	3	1.52	90	87	200			
CC(C)N(CCC(CCn1cccc1)(C(N)=O)c1ccccc1)C(C)C (configuration not stated)	> 3.3	2.3	15	0.13						
CC(C)N(CCC(CCCN1CCCCC1)(C(N)=O)c1ccccc1F)C(C)C (configuration not stated)	> 6	4.2	7.5	0.36						
CC(C)N(CCC(CCCN1CCCCC1)(C(N)=O)c1ccccc1Cl)C(C)C (configuration not stated)	5	4.6	3.5	1.55						
CC(C)N(CCC(CCN(C(C)C)C(C)C)(C(N)=O)c1ccc(Cl)c(Cl)c1)C(C)C	4.6	5.8	2.5	0.63						
CC(C)N(CCC(CCN1C(C)CCCC1C)(C(N)=O)c1ccccc1F)C(C)C (configuration not stated)	6.7	8.3	3.3	2.2						
Cc1ccc(C(CCN(C(C)C)C(C)C)(CCN(C(C)C)C(C)C)C(N)=O)cc1	1.9	5.3	2							
CC(C)N(CCC(CCN1CCOCC1)(C(N)=O)c1ccccc1)C(C)C (configuration not stated)	7.6	5.6	5		285	84	52			
CC1CCCCN1CCC(CCN(C(C)C)C(C)C)(C(N)=O)c1ccccc1F (configuration not stated)	3.2	4.6	7.5	0.6						
CCN(CC)CCC(CCN(C(C)C)C(C)C)(C(N)=O)c1ccccc1 (configuration not stated)	5.5	4.6	7.5	0.94						
CC(C)N(CCC(CCCN(C)C)(C(N)=O)c1ccccc1)C(C)C (configuration not stated)			20							

Compound	selectivity ratio [1]	AR [2]	minimal effective dose [3] [mg/kg]	ADI [4]	Onset of action [5] [min]	Reduction [6] [%]	Duration [7] [min]	Duration [8] [min]	Onset of action [9] [min]	Reduction [10] [%]
CC(C)N(CCC(CCN(C(C)C)C(C)C)(C(N)=O)c1cccc(F)c1)C(C)C	2.4	6	3	0.66						
CC(C)N(CCC(CCN1CCCCCC1)(C(N)=O)c1ccccc1F)C(C)C (configuration not stated)	7.5	6.9	3	0.78						
CC(C)N(CCC(CCN1CCCCC1)(C(N)=O)c1ccccc1Br)C(C)C (configuration not stated)	13	7.2	1.5	1.2						
CC(C)N(CCC(CCCN1CC2CCC(CC2)C1)(C(N)=O)c1ccccc1Cl)C(C)C (configuration not stated)	4	6.3	7	0.3						
CC(C)N(CCC(CCn1cccc1)(C(N)=O)c1ccccc1F)C(C)C (configuration not stated)	7.3	3.6	7.5	0.59						
COc1ccc(C(CCN(C(C)C)C(C)C)(CCN(C(C)C)C(C)C)C(N)=O)cc1	3.1	6.5	4	1.33						
CC(C)N(CCC(CCN(C)C)(C(N)=O)c1ccc(F)cc1)C(C)C (configuration not stated)	1.1	2.2	15	0.21						
CC(C)N(CCC(CCN1CC2CCC1CC2)(C(N)=O)c1ccccc1)C(C)C (configuration not stated)	4.6	6.7	3.5	1.38						
CC(C)N(CCC(CCCN(C)C)(C(N)=O)c1ccccc1F)C(C)C (configuration not stated)	> 4	1.8	12.5	0.12						
CC(C)N(CCC(CCN(C(C)C)C(C)C)(C(N)=O)c1ccccc1Cl)C(C)C	3.5	6.5	2.5	1.57						
CC(C)N(CCC(CCN1CCCCC1)(C(N)=O)c1ccc(Cl)cc1)C(C)C (configuration not stated)	1	6.6	3.5	0.51						
CC(C)N(CCC(CCN(C(C)C)C(C)C)(C(N)=O)c1cccc(C(F)(F)F)c1)C(C)C	2.4	6	3	1.5						
CC(C)N(CCC(CCN(C)C1CCCCC1)(C(N)=O)c1ccccc1)C(C)C (configuration not stated)	4.1	7.1	2.7	1.36				30	300	69
CC(C)N(CCC(CCN1CCCCC1)(C(N)=O)c1ccc(C(C)(C)C)cc1)C(C)C (configuration not stated)	2.9	7.8	2.5	0.82						
CC(C)N(CCC(CCN1CCCCC1)(C(N)=O)c1cccc(Cl)c1)C(C)C (configuration not stated)	3	4.4	2.3	0.7						
CC(C)N(CCC(CCN(C(C)C)C(C)C)(C(N)=O)c1ccc(F)cc1F)C(C)C	4.7	7.7	4.5	0.69						
CC(C)N(CCC(CCN(C)C)(C(N)=O)c1ccc(C(C)(C)C)cc1)C(C)C (configuration not stated)	1.3	4.9	5	0.76						
CC(C)N(CCC(CCN(C)C1CCCCC1)(C(N)=O)c1ccccc1F)C(C)C (configuration not stated)	12.7	6	1.5	0.98	203	67	150			
CC(C)N(CCC(CCN(C(C)C)C(C)C)(C(N)=O)c1ccccc1)C(C)C	3.4	6.5	5.5	1.31	200	89	200			
CC(C)c1ccc(C(CCN2CCCCC2)(CCN(C(C)C)C(C)C)C(N)=O)cc1 (configuration not stated)	2	6.2	3	0.75						
CC(C)N(CCC(CCN(C(C)C)C(C)C)(C(N)=O)c1ccc(F)cc1)C(C)C	12	6.7	2	1.19	88	92	147			
CC(C)N(CCC(CCN(C(C)C)C(C)C)(C(N)=O)c1ccccc1Br)C(C)C	8	6.1	1.5	2.16						
C=C[C@H]1CN2CC[C@H]1C[C@@H]2[C@@H](O)c1ccnc2ccc(OC)cc12 [QUINIDINE]		2.2	13.5	0.4	110	57	110			
